# Assay results taken from US11229618B2 (Amarin Pharmaceuticals Ireland Limited, priority 2012, dated 2022).
# Assay: ANCHOR: RBC fatty acid concentrations, ratios and class proportions (GC/FID)
# Type: in vivo, human
# Design: DHA RBC End-of-treatment / DHA RBC Change from baseline / DPAn-3 RBC End-of-treatment / DPAn-3 RBC Change from baseline / AA RBC End-of-treatment / AA RBC Change from baseline / Stearic RBC End-of-treatment / Stearic RBC Change from baseline / Oleic RBC End-of-treatment / Oleic RBC Change from baseline / Linoleic RBC End-of-treatment / Linoleic RBC Change from baseline: unit not given here
# Conditions: for AA RBC Placebo-adjusted percent change from baseline / DHA RBC Placebo-adjusted percent change from baseline / DPAn-3 RBC Placebo-adjusted percent change from baseline / Linoleic RBC Placebo-adjusted percent change from baseline / Oleic RBC Placebo-adjusted percent change from baseline / Palmitic RBC Placebo-adjusted percent change from baseline / Ratio of AA/EPA RBC Placebo-adjusted percent change from baseline / Ratio of total ω-3/total ω-6 RBC Placebo-adjusted percent change from baseline / Stearic RBC Placebo-adjusted percent change from baseline: week 12, LS mean; for Monounsaturated, proportion of total fatty acids, RBCs, Change from baseline / Saturated, proportion of total fatty acids, RBCs, Change from baseline / Total ω-3, proportion of total fatty acids, RBCs, Change from baseline / Total ω-6, proportion of total fatty acids, RBCs, Change from baseline: LS mean (SE); for AA RBC End-of-treatment / DHA RBC End-of-treatment / DPAn-3 RBC End-of-treatment / Linoleic RBC End-of-treatment / Oleic RBC End-of-treatment / Palmitic RBC End-of-treatment / Ratio of AA/EPA RBC End-of-treatment / Ratio of total ω-3/total ω-6 RBC End-of-treatment / Stearic RBC End-of-treatment: week 12, mean; for Monounsaturated, proportion of total fatty acids, RBCs, End-of-treatment / Saturated, proportion of total fatty acids, RBCs, End-of-treatment / Total ω-3, proportion of total fatty acids, RBCs, End-of-treatment / Total ω-6, proportion of total fatty acids, RBCs, End-of-treatment: week 12, mean (SD)
# Procedure: A multi-center, placebo-controlled, randomized, double-blind, 12-week study was performed to evaluate the efficacy and safety of >96% E-EPA in patients with fasting triglyceride levels≥200 mg/dl and <500 mg/dl despite statin therapy (the mean of two qualifying entry values needed to be ≥185 mg/dl and at least one of the values needed to be ≥200 mg/dl). The primary objective of the study was to determine the efficacy of >96% E-EPA 2 g daily and 4 g daily, compared to placebo, in lowering fasting TG levels in patients with high risk for cardiovascular disease and with fasting TG levels≥200 mg/dL and <500 mg/dL, despite treatment to LDL-C goal on statin therapy.
# During the double-blind treatment period, patients were to take 2 capsules (>96% E-EPA or matching placebo) in the morning and 2 capsules in the evening for a total of 4 capsules per day. • Patients in the >96% E-EPA 2 g/day treatment group received 1>96% E-EPA 1 g capsule and 1 matching placebo capsule in the morning and in the evening. • Patients in the >96% E-EPA 4 g/day treatment group received 2>96% E-EPA 1 g capsules in the morning and evening. • Patients in the placebo group received 2 matching placebo capsules in the morning and evening.
# Lipids were extracted from plasma and red blood cell (“RBC”) suspensions and converted into fatty acid methyl esters for analysis using a standard validated gas chromatography/flame ionization detection method. Fatty acid parameters were compared between EPA treatment groups and placebo using an ANCOVA model with treatment, gender, type of statin therapy, and presence of diabetes as factors, and the baseline parameter value as a covariate. LSMs, SEs, and 2-tailed 95% confidence intervals for each treatment group and for each comparison were determined.
# The monounsaturated fatty acid group included myristoleic, palmitoleic, cis-vaccenic, oleic, gondoic/gadoleic, erucic and nervonic acids. The saturated fatty acid group included myristic, palmitic, stearic, arachidic, behenic and lignoceric acids. The “total ω-3” group included α-linolenic, stearidonic, eicosatrienoic, ω-3 arachidonic, eicosapentaenoic, ω-3 docosapentaenoic and docosahecaenoic acids. The “total ω-6” group included linoleic, γ-linolenic, eicosadienoic, dihomo-γ-linolenic, ω-6 arachidonic, adrenic, and ω-6 docosapentaenoic acids. The “total fatty acid” group represented the sum of the monounsaturated, saturated, total ω-3 and total ω-6 groups.
# [1] = 2 g/day, baseline to week 12, LS mean (SE)
# [2] = 4 g/day, baseline to week 12, LS mean
compound,measurement,setting,value
"CC/C=C\C/C=C\C/C=C\C/C=C\C/C=C\CCCC(=O)OCC [IPE, all-cis eicosa-5,8,11,14,17-pentaenoic acid ethyl ester]","Monounsaturated, proportion of total fatty acids, RBCs, Placebo-adjusted percent change from baseline",2 g/day vs placebo,−0.7%
same,"Saturated, proportion of total fatty acids, RBCs, Placebo-adjusted percent change from baseline",2 g/day vs placebo,1.3%
same,"Total ω-3, proportion of total fatty acids, RBCs, Placebo-adjusted percent change from baseline",2 g/day vs placebo,50.0%
same,"Total ω-6, proportion of total fatty acids, RBCs, Placebo-adjusted percent change from baseline",2 g/day vs placebo,−11.3%
same,AA RBC Placebo-adjusted percent change from baseline,2 g/day vs placebo,−11.6%
same,DHA RBC Placebo-adjusted percent change from baseline,2 g/day vs placebo,−5.4%
same,DPAn-3 RBC Placebo-adjusted percent change from baseline,2 g/day vs placebo,74.9%
same,Linoleic RBC Placebo-adjusted percent change from baseline,2 g/day vs placebo,−2.1%
same,Oleic RBC Placebo-adjusted percent change from baseline,2 g/day vs placebo,1.6%
same,Palmitic RBC Placebo-adjusted percent change from baseline,2 g/day vs placebo,0.5%
same,Ratio of AA/EPA RBC Placebo-adjusted percent change from baseline,2 g/day vs placebo,−87.1%
same,Ratio of total ω-3/total ω-6 RBC Placebo-adjusted percent change from baseline,2 g/day vs placebo,60.4%
same,Stearic RBC Placebo-adjusted percent change from baseline,2 g/day vs placebo,1.6%
same,"Monounsaturated, proportion of total fatty acids, RBCs, Change from baseline",2 g/day,−0.1 (0.2) mol %
same,"Saturated, proportion of total fatty acids, RBCs, Change from baseline",2 g/day,−0.3 (0.3) mol %
same,"Total ω-3, proportion of total fatty acids, RBCs, Change from baseline",2 g/day,2.6 (0.2) mol %
same,"Total ω-6, proportion of total fatty acids, RBCs, Change from baseline",2 g/day,−2.4 (0.4) mol %
same,AA RBC Change from baseline,[1],−20.0 (3.3)
same,DHA RBC Change from baseline,[1],−5.5 (0.9)
same,DPAn-3 RBC Change from baseline,[1],21.2 (1.3)
same,Linoleic RBC Change from baseline,[1],−1.3 (3.5)
same,Oleic RBC Change from baseline,[1],3.1 (2.8)
same,Palmitic RBC Change from baseline,[1],4.9 (4.1)
same,Ratio of AA/EPA RBC Change from baseline,[1],−21.9 (0.8)
same,Ratio of total ω-3/total ω-6 RBC Change from baseline,[1],0.1 (0.01)
same,Stearic RBC Change from baseline,[1],3.9 (2.3)
same,AA RBC End-of-treatment,2 g/day,173.0
same,DHA RBC End-of-treatment,2 g/day,44.7
same,DPAn-3 RBC End-of-treatment,2 g/day,52.2
same,Linoleic RBC End-of-treatment,2 g/day,153.1
same,Oleic RBC End-of-treatment,2 g/day,204.7
same,Palmitic RBC End-of-treatment,2 g/day,321.1
same,Ratio of AA/EPA RBC End-of-treatment,2 g/day,6.4
same,Ratio of total ω-3/total ω-6 RBC End-of-treatment,2 g/day,0.3
same,Stearic RBC End-of-treatment,2 g/day,178.7
same,"Monounsaturated, proportion of total fatty acids, RBCs, End-of-treatment",2 g/day,19.9 (1.1) mol %
same,"Saturated, proportion of total fatty acids, RBCs, End-of-treatment",2 g/day,43.5 (2.1) mol %
same,"Total ω-3, proportion of total fatty acids, RBCs, End-of-treatment",2 g/day,8.5 (1.5) mol %
same,"Total ω-6, proportion of total fatty acids, RBCs, End-of-treatment",2 g/day,28.1 (2.1) mol %
same,"Monounsaturated, proportion of total fatty acids, RBCs, Placebo-adjusted percent change from baseline",4 g/day vs placebo,−2.7%
same,"Saturated, proportion of total fatty acids, RBCs, Placebo-adjusted percent change from baseline",4 g/day vs placebo,3.2%
same,"Total ω-3, proportion of total fatty acids, RBCs, Placebo-adjusted percent change from baseline",4 g/day vs placebo,89.1%
same,"Total ω-6, proportion of total fatty acids, RBCs, Placebo-adjusted percent change from baseline",4 g/day vs placebo,−19.7%
same,AA RBC Placebo-adjusted percent change from baseline,4 g/day vs placebo,−20.3%
same,DHA RBC Placebo-adjusted percent change from baseline,4 g/day vs placebo,−6.6%
same,DPAn-3 RBC Placebo-adjusted percent change from baseline,4 g/day vs placebo,122.4%
same,Linoleic RBC Placebo-adjusted percent change from baseline,4 g/day vs placebo,−11.1%
same,Oleic RBC Placebo-adjusted percent change from baseline,4 g/day vs placebo,−3.7%
same,Palmitic RBC Placebo-adjusted percent change from baseline,4 g/day vs placebo,−2.7%
same,Ratio of AA/EPA RBC Placebo-adjusted percent change from baseline,4 g/day vs placebo,−98.5%
same,Ratio of total ω-3/total ω-6 RBC Placebo-adjusted percent change from baseline,4 g/day vs placebo,123.0%
same,Stearic RBC Placebo-adjusted percent change from baseline,4 g/day vs placebo,−1.3%
same,"Monounsaturated, proportion of total fatty acids, RBCs, Change from baseline",4 g/day,−0.5 (0.2) mol %
same,"Saturated, proportion of total fatty acids, RBCs, Change from baseline",4 g/day,0.5 (0.3) mol %
same,"Total ω-3, proportion of total fatty acids, RBCs, Change from baseline",4 g/day,4.9 (0.2) mol %
same,"Total ω-6, proportion of total fatty acids, RBCs, Change from baseline",4 g/day,−4.9 (0.4) mol %
same,AA RBC Change from baseline,[2],−37.5
same,DHA RBC Change from baseline,[2],−6.4
same,DPAn-3 RBC Change from baseline,[2],33.6
same,Linoleic RBC Change from baseline,[2],−16.1
same,Oleic RBC Change from baseline,[2],−8.0
same,Palmitic RBC Change from baseline,[2],−6.3
same,Ratio of total ω-3/total ω-6 RBC Change from baseline,[2],0.2
same,Stearic RBC Change from baseline,[2],−1.4
same,AA RBC End-of-treatment,4 g/day,153.1
same,DHA RBC End-of-treatment,4 g/day,39.0
same,DPAn-3 RBC End-of-treatment,4 g/day,61.9
same,Linoleic RBC End-of-treatment,4 g/day,132.7
same,Oleic RBC End-of-treatment,4 g/day,188.8
same,Palmitic RBC End-of-treatment,4 g/day,301.2
same,Ratio of AA/EPA RBC End-of-treatment,4 g/day,3.6
same,Ratio of total ω-3/total ω-6 RBC End-of-treatment,4 g/day,0.4
same,Stearic RBC End-of-treatment,4 g/day,170.5
same,"Monounsaturated, proportion of total fatty acids, RBCs, End-of-treatment",4 g/day,19.8 (1.7) mol %
same,"Saturated, proportion of total fatty acids, RBCs, End-of-treatment",4 g/day,44.2 (3.0) mol %
same,"Total ω-3, proportion of total fatty acids, RBCs, End-of-treatment",4 g/day,10.2 (2.5) mol %
same,"Total ω-6, proportion of total fatty acids, RBCs, End-of-treatment",4 g/day,25.8 (3.2) mol %
